# Measured values reported in article PMC7525662, “Preclinical dosimetry models and the prediction of clinical doses of novel positron emission tomography radiotracers” (Scientific Reports, 2020).
# Marks after values point to notes of the source that are not given here.
# Key:
# Parameters in all cases: species or system Sprague–Dawley rats
# Conditions in all cases: rat, in vivo
# [1] = OLINDA/EXM predicted clinical doses: adult female phantom, normalised τ, FBP
# Method: (§1) PET studies were reconstructed using filtered-back projection (FBP) and Mediso’s iterative Tera-Tomo 3D reconstruction algorithm with the following settings: 4 iterations, 6 subsets, full detector model, normal regularization, spike filter on, voxel size 0.4 mm and 400‒600 keV energy window. PET data were corrected for randoms, scatter and attenuation. Time-activity curves for each source organ, whole-body and remainder of the body were plotted. […] Residence times (τ) were determined for each radiotracer in source organs, whole-body and remaining (any activity assigned to the whole-body but not assigned to a source organ). Each preclinical source organ’s τ was determined by calculating the area under its respective time-activity curve (activity normalised to the percentage maximum injected dose as a function of time) using the trapezoid method. […] From each individual animal, eight dosimetry models were constructed from all possible combinations of image reconstruction method (FBP or iterative), τ (non-normalised or normalised to human organ masses), and sex of phantom (male or female). Supplementary table 8. Predicted clinical absorbed organ doses and whole-body effective doses of PET radiotracers using normalised adult female source organ residence times from filtered backprojection reconstructions.
# [2] = OLINDA/EXM predicted clinical doses: adult male phantom, non-normalised τ, iterative
# Method: as §1, with “female).” for “female). Supplementary table 8. Predicted clinical absorbed organ doses and whole-body effective doses of PET radiotracers using normalised adult female source organ residence times from filtered backprojection reconstructions.”
# [3] = OLINDA/EXM predicted clinical doses: adult female phantom, normalised τ, iterative
# Method: as §1, with “12.” for “8.”, “iterative” for “filtered backprojection”
substance,measurement,setting,value
NOTA-RGDfK [existing Al^18F-labelled NOTA-RGDfK peptide PET radiotracer; precursor NOTA-RGDfK (1)],"Effective Dose (mSv/MBq), Average ± SD",[1],2.71E-02 mSv/MBq
same,"Estimated Absorbed Dose of Organ, Average: Adrenals",[1],1.41E-02 mGy/MBq
same,"Estimated Absorbed Dose of Organ, Average: Brain",[1],4.10E-03 mGy/MBq
same,"Estimated Absorbed Dose of Organ, Average: Breasts",[1],1.02E-02 mGy/MBq
same,"Estimated Absorbed Dose of Organ, Average: Gallbladder Wall",[1],1.36E-02 mGy/MBq
same,"Estimated Absorbed Dose of Organ, Average: Heart Wall",[1],1.39E-02 mGy/MBq
same,"Estimated Absorbed Dose of Organ, Average: Kidneys",[1],1.95E-02 § mGy/MBq
same,"Estimated Absorbed Dose of Organ, Average: LLI Wall",[1],6.76E-02 ‡ mGy/MBq
same,"Estimated Absorbed Dose of Organ, Average: Liver",[1],8.65E-03 mGy/MBq
same,"Estimated Absorbed Dose of Organ, Average: Lungs",[1],1.10E-02 mGy/MBq
same,"Estimated Absorbed Dose of Organ, Average: Muscle",[1],1.29E-02 mGy/MBq
same,"Estimated Absorbed Dose of Organ, Average: Osteogenic Cells",[1],2.00E-02 mGy/MBq
same,"Estimated Absorbed Dose of Organ, Average: Ovaries",[1],2.14E-02 mGy/MBq
same,"Estimated Absorbed Dose of Organ, Average: Pancreas",[1],1.47E-02 mGy/MBq
same,"Estimated Absorbed Dose of Organ, Average: Red Marrow",[1],1.23E-02 mGy/MBq
same,"Estimated Absorbed Dose of Organ, Average: Skin",[1],9.76E-03 mGy/MBq
same,"Estimated Absorbed Dose of Organ, Average: Small Intestine",[1],1.64E-02 mGy/MBq
same,"Estimated Absorbed Dose of Organ, Average: Spleen",[1],1.38E-02 mGy/MBq
same,"Estimated Absorbed Dose of Organ, Average: Stomach Wall",[1],1.41E-02 mGy/MBq
same,"Estimated Absorbed Dose of Organ, Average: Thymus",[1],1.28E-02 mGy/MBq
same,"Estimated Absorbed Dose of Organ, Average: Thyroid",[1],1.16E-02 mGy/MBq
same,"Estimated Absorbed Dose of Organ, Average: Total Body",[1],1.31E-02 mGy/MBq
same,"Estimated Absorbed Dose of Organ, Average: ULI Wall",[1],1.62E-02 mGy/MBq
same,"Estimated Absorbed Dose of Organ, Average: Urinary Bladder Wall",[1],1.54E-01 † mGy/MBq
same,"Estimated Absorbed Dose of Organ, Average: Uterus",[1],2.28E-02 mGy/MBq
same,"Effective Dose (mSv/MBq), Average ± SD",[2],6.30E-02 mSv/MBq
same,"Estimated Absorbed Dose of Organ, Average ± SD: Adrenals",[2],7.60E-03 mGy/MBq
same,"Estimated Absorbed Dose of Organ, Average ± SD: Brain",[2],1.47E-03 mGy/MBq
same,"Estimated Absorbed Dose of Organ, Average ± SD: Breasts",[2],4.25E-03 mGy/MBq
same,"Estimated Absorbed Dose of Organ, Average ± SD: Gallbladder Wall",[2],8.74E-03 mGy/MBq
same,"Estimated Absorbed Dose of Organ, Average ± SD: Heart Wall",[2],6.02E-03 mGy/MBq
same,"Estimated Absorbed Dose of Organ, Average ± SD: Kidneys",[2],4.41E-02 § mGy/MBq
same,"Estimated Absorbed Dose of Organ, Average ± SD: LLI Wall",[2],1.50E-01 ‡ mGy/MBq
same,"Estimated Absorbed Dose of Organ, Average ± SD: Liver",[2],8.14E-03 mGy/MBq
same,"Estimated Absorbed Dose of Organ, Average ± SD: Lungs",[2],3.96E-03 mGy/MBq
same,"Estimated Absorbed Dose of Organ, Average ± SD: Muscle",[2],1.06E-02 mGy/MBq
same,"Estimated Absorbed Dose of Organ, Average ± SD: Osteogenic Cells",[2],1.00E-02 mGy/MBq
same,"Estimated Absorbed Dose of Organ, Average ± SD: Pancreas",[2],7.83E-03 mGy/MBq
same,"Estimated Absorbed Dose of Organ, Average ± SD: Red Marrow",[2],9.28E-03 mGy/MBq
same,"Estimated Absorbed Dose of Organ, Average ± SD: Skin",[2],5.85E-03 mGy/MBq
same,"Estimated Absorbed Dose of Organ, Average ± SD: Small Intestine",[2],1.73E-02 mGy/MBq
same,"Estimated Absorbed Dose of Organ, Average ± SD: Spleen",[2],7.40E-03 mGy/MBq
same,"Estimated Absorbed Dose of Organ, Average ± SD: Stomach Wall",[2],7.65E-03 mGy/MBq
same,"Estimated Absorbed Dose of Organ, Average ± SD: Testes",[2],1.89E-02 mGy/MBq
same,"Estimated Absorbed Dose of Organ, Average ± SD: Thymus",[2],5.18E-03 mGy/MBq
same,"Estimated Absorbed Dose of Organ, Average ± SD: Thyroid",[2],5.01E-03 mGy/MBq
same,"Estimated Absorbed Dose of Organ, Average ± SD: Total Body",[2],1.06E-02 mGy/MBq
same,"Estimated Absorbed Dose of Organ, Average ± SD: ULI Wall",[2],1.35E-02 mGy/MBq
same,"Estimated Absorbed Dose of Organ, Average ± SD: Urinary Bladder Wall",[2],6.89E-01 † mGy/MBq
same,Effective Dose,[3],8.33E-03 mSv/MBq
same,"Estimated Absorbed Dose of Organ, Brain",[3],8.66E-03 mGy/MBq
same,"Estimated Absorbed Dose of Organ, Breasts",[3],2.91E-03 mGy/MBq
same,"Estimated Absorbed Dose of Organ, Gallbladder Wall",[3],5.51E-03 mGy/MBq
same,"Estimated Absorbed Dose of Organ, Heart Wall",[3],1.03E-02 mGy/MBq
same,"Estimated Absorbed Dose of Organ, Kidneys",[3],1.53E-02 mGy/MBq
same,"Estimated Absorbed Dose of Organ, LLI Wall",[3],8.45E-03 mGy/MBq
same,"Estimated Absorbed Dose of Organ, Liver",[3],3.23E-02 § mGy/MBq
same,"Estimated Absorbed Dose of Organ, Lungs",[3],9.20E-03 mGy/MBq
same,"Estimated Absorbed Dose of Organ, Muscle",[3],8.21E-03 mGy/MBq
same,"Estimated Absorbed Dose of Organ, Osteogenic Cells",[3],7.60E-03 mGy/MBq
same,"Estimated Absorbed Dose of Organ, Ovaries",[3],7.96E-03 mGy/MBq
same,"Estimated Absorbed Dose of Organ, Pancreas",[3],1.68E-02 mGy/MBq
same,"Estimated Absorbed Dose of Organ, Red Marrow",[3],8.65E-03 mGy/MBq
same,"Estimated Absorbed Dose of Organ, Skin",[3],1.09E-02 mGy/MBq
same,"Estimated Absorbed Dose of Organ, Small Intestine",[3],6.42E-02 ‡ mGy/MBq
same,"Estimated Absorbed Dose of Organ, Spleen",[3],5.48E-03 mGy/MBq
same,"Estimated Absorbed Dose of Organ, Stomach Wall",[3],1.13E-02 mGy/MBq
same,"Estimated Absorbed Dose of Organ, Thymus",[3],8.11E-03 mGy/MBq
same,"Estimated Absorbed Dose of Organ, Thyroid",[3],6.90E-03 mGy/MBq
same,"Estimated Absorbed Dose of Organ, ULI Wall",[3],8.02E-03 mGy/MBq
same,"Estimated Absorbed Dose of Organ, Urinary Bladder Wall",[3],5.97E-03 mGy/MBq
same,"Estimated Absorbed Dose of Organ, Uterus",[3],2.38E-01 † mGy/MBq
same,"Estimated Absorbed Dose, Total Body",[3],2.06E-02 mGy/MBq
